Take `CS(=O)(=O)Cc1ccc(N)cc1F`: the melting point (usually the temperature, or range, at which the solid turns liquid) was 152 to 154 °C. As for `CC1(C)C(=O)Nc2ccccc2N1C(=O)CCl`, the figure is 170 to 172 °C. With `Brc1ccc(-c2cscn2)cc1`, the melting point lay within 69 to 71 °C.

`O=Cc1ccc(-c2ccc(Cl)c(C(F)(F)F)c2)o1` showed a melting point of 74 to 76 °C. As for `ClCc1cc(Br)c2c(c1)OCO2`, the figure is 100 to 102 °C. For the molecule `CCCCn1c(N)c(NCc2ccccc2)c(=O)[nH]c1=O`, the melting point lay in the range of 207 to 209 °C. The value for `CCOc1ccc(NC(=O)CO)cc1` was 150 to 152 °C; that for `O=c1n(CCO)nc2ccccn12` was 134 to 136 °C; that for `Cc1cc(-c2nc(C3CC3)no2)ccc1N` was 87 to 89 °C.

In turn, `COc1ccccc1N1C(=O)C=CC1=O` showed a melting point of 90 to 91 °C.

On to `Cc1nc(C)c(C)c(O)n1`, for which the melting point lay within 276 to 278 °C. As for `NC1CCN(c2ccc(C(F)(F)F)cc2)C1` (stereo unspecified), the figure is 60 to 62 °C. As for `Cc1ccc(Cl)c2ccc(Cl)nc12`, the figure is 61 to 63 °C. `COc1cc2nc(C)sc2cc1N`: the melting point lay within 89 to 91 °C. As to `Cc1cccc(OCC(=O)NN)c1`, the melting point was in the range of 109 to 111 °C. As for `O=C(O)c1cccc(NC(=O)c2ccc3[nH]cnc3c2)c1`, the figure is 305 to 307 °C. As for `Cc1cc(C(=O)CCl)c(C)n1Cc1cccs1`, the figure is 83 to 85 °C; as for `O=C(O)Cc1ccc(OCc2ccccn2)cc1`, 153 to 155 °C; as for `O=C(O)c1cn(-c2ccc(Br)cc2C(F)(F)F)nn1`, 139 to 141 °C. As for `Cc1ccc(CN(C)C)cc1N`, the figure is 66 to 68 °C; as for `Cn1c(N)c(C(=O)CC#N)c(=O)n(C)c1=O`, 260 to 262 °C; as for `Cc1cc(C)c2c(N)c(C(=O)NN)sc2n1`, 245 to 247 °C. For `Cn1ccnc1CC(=O)c1ccccc1`, the melting point is 96 to 98 °C. The value for `Cc1cc(N)ccc1Oc1cccnc1` was 90 to 92 °C; that for `COc1ccc2cc(C(N)=S)ccc2c1` was 188 to 190 °C. The value for `NNC(=O)c1ccc(NS(=O)(=O)c2cccc([N+](=O)[O-])c2)cc1` was 80 to 82 °C. The value for `Cc1nnc(-c2ccc(C(=O)O)cc2)n1C` was 269 to 271 °C; that for `CCOC(=O)c1cnn(-c2ncccn2)c1N` was 181 to 183 °C. With `NC(=O)c1ccc(C(=O)O)nc1`, the melting point is 249 to 251 °C. The molecule `O=C1CC(c2ccccc2)C(=O)N1` (stereo unspecified) returned a melting point of 72 to 74 °C. As for `CCCc1ccc(C(=O)COc2ccc(C=O)cc2OC)cc1`, the figure is 73 to 75 °C; as for `CNS(=O)(=O)c1cccc(C(C)=O)c1`, 96 to 98 °C; as for `CC1C(=O)NCCN1C(=O)c1ccc(Cl)s1` (stereo unspecified), 149 to 151 °C. With `N#CCCCS(N)(=O)=O`, the melting point lay in the range of 49 to 51 °C. `Cc1nn(Cc2ccc(F)cc2)c(Cl)c1C=O` gave a melting point of 49 to 51 °C. As for `Cc1ccc(S(=O)(=O)Nc2cc(Cl)ccc2C(=O)O)cc1`, the figure is 205 to 207 °C; as for `Cc1cccc(Oc2ccc(N)cn2)c1C`, 68 to 70 °C. Molecule `CC(C)c1c(C(=O)O)cnn1-c1cccc(Cl)c1` displayed a melting point of 161 to 163 °C.

`Fc1ccc(C2=NOC(CCl)C2)cc1` (stereo unspecified): the melting point is 59 to 61 °C. The molecule `O=C(O)C1CCCS1` (stereo unspecified) had a melting point of 48 to 50 °C. The value for `COC(=O)C(N)c1ccc(F)cc1F` (stereo unspecified) was 39 to 41 °C. As for `Cn1cc(S(=O)(=O)N2CCOCC2)cc1C(=O)NC(=O)CCl`, the figure is 229 to 231 °C; as for `N#Cc1ccccc1Oc1ccc(N)cc1F`, 119 to 121 °C.

On to `NC(=O)N1CCc2ccccc2C1`, for which the melting point was 170 to 172 °C. Molecule `CCOc1cccc2c1OCC(C(=O)O)=C2` showed a melting point of 219 to 221 °C. As for `CCOCCCNc1nnc(S)s1`, the figure is 63 to 65 °C; as for `CC1(C)CCCCC1CC(=O)O` (stereo unspecified), 41 to 43 °C; as for `Cc1nccc(C(=O)O)n1`, 206 to 208 °C.

`CN(C)S(=O)(=O)c1ccc2c(c1)CCCN2`: the melting point lay in the range of 160 to 162 °C. `Cc1nccn1-c1ccc(C#N)cn1`: the melting point was 213 to 215 °C.

The molecule `Cc1cc(C(=O)O)nn1-c1ccc(Cl)cc1Cl` gave a melting point of 199 to 201 °C. Molecule `Nc1ccc2nc(S)oc2c1` returned a melting point of 208 to 210 °C. Take `O=C(O)Cc1csc(-c2ccco2)n1`: the melting point lay in the range of 136 to 138 °C.

In the case of `NNc1c(F)cc(F)cc1Cl`, the melting point fell in the range of 87 to 89 °C.

For `O=C(O)c1cc(-c2ccccc2)nc2cccc(Br)c12`, the melting point was in the range of 235 to 237 °C. `CC(Cl)C(=O)Nc1cccc(S(=O)(=O)N(C)C)c1` (stereo unspecified): the melting point was in the range of 163 to 167 °C. As for `O=C(O)CSc1nnc(C2CC2)n1Cc1ccccc1`, the figure is 194 to 196 °C.

Consider `CS(=O)(=O)Nc1nnc(N)s1`, for which the melting point was in the range of 251 to 253 °C. For the molecule `CC(C)N(CCC#N)S(C)(=O)=O`, the melting point lay in the range of 107 to 109 °C. `COc1ccccc1C(=O)Nc1ccc(O)cc1` showed a melting point of 172 to 174 °C.

Consider `Nc1ncnc2c1ncn2CCCCl`, for which the melting point lay within 339 to 341 °C. The value for `COc1ccc(Cl)cc1C1(CN)CCOCC1` was 100 to 102 °C. As for `CC(C)Oc1ccc(S(=O)(=O)N2CCOCC2)cc1N`, the figure is 149 to 151 °C; as for `O=C1c2ccc([N+](=O)[O-])cc2C(=O)N1c1ccncc1`, 259 to 261 °C. As for `O=C(CCl)c1cc(Cl)sc1Cl`, the figure is 43 to 45 °C; as for `CC(Oc1ccc(F)cc1Cl)C(=O)O` (stereo unspecified), 72 to 74 °C. `N#CC1CSCCS1` (stereo unspecified) yielded a melting point of 76 to 78 °C. On to `Nc1snc2ccc([N+](=O)[O-])cc12`, for which the melting point is 198 to 200 °C. As for `Cc1cccc2cc(C(=O)O)[nH]c12`, the figure is 169 to 175 °C; as for `O=c1[nH]c(N2CCOCC2)nc2scc(-c3ccccc3)c12`, 307 to 309 °C; as for `Cc1ccc(C(=O)CCl)cc1`, 53 to 57 °C. As for `O=C1COc2cc(F)ccc2N1`, the figure is 206 to 208 °C; as for `COC(=O)C(=O)CC(=O)c1cc(F)ccc1F`, 145 to 147 °C. `Cc1c(C(N)=O)sc2nc[nH]c(=O)c12`: the melting point lay in the range of 283 to 285 °C. As for `CN1CCN(c2ncc(C=O)cn2)CC1`, the figure is 90 to 92 °C; as for `O=C(O)Cc1csc(-c2ccccn2)n1`, 140 to 147 °C.

`CC(C(=O)O)S(=O)(=O)Cc1ccc(Br)cc1` (stereo unspecified) displayed a melting point of 135 to 137 °C.

In the case of `O=C(O)Cc1cc2c(cc1[N+](=O)[O-])OCCO2`, the melting point was 219 to 221 °C. For `CNc1ccc([N+](=O)[O-])cc1C(=O)O`, the melting point lay within 261 to 263 °C. Turning to `NS(=O)(=O)C=Cc1cccc(Br)c1`, the melting point lay within 153 to 155 °C. In turn, `Cc1nn(-c2ccc(Cl)cc2)cc1C(=O)O` gave a melting point of 224 to 226 °C. In turn, `Nc1ccc2[nH]c(-c3ccccn3)nc2c1` had a melting point of 189 to 191 °C. As for `NC1=NN(c2c(Cl)cc(Cl)cc2Cl)C(=O)C1`, the figure is 218 to 220 °C; as for `O=C(O)CCCNC(=O)c1cccnc1`, 211 to 213 °C. The molecule `O=C(O)C(F)(F)c1ccc(F)cc1` yielded a melting point of 99 to 101 °C. As for `O=C(O)C1(C(=O)NC2CC2)CC1`, the figure is 145 to 147 °C; as for `CC(C)C1NC(=O)c2ccccc2NC1=O` (stereo unspecified), 259 to 261 °C; as for `COC(=O)c1noc(C(=O)OC)c1O`, 157 to 161 °C.

For the molecule `COc1cc(S(N)(=O)=O)ccc1N`, the melting point fell in the range of 142 to 144 °C. `O=S(=O)(Cl)c1cc2c(cc1Br)OCCO2` displayed a melting point of 173 to 175 °C.

The molecule `CCOC(=O)c1c[nH]c2cc(F)c(F)c(F)c2c1=O` showed a melting point of 339 to 341 °C.

The molecule `O=C(O)CCc1nc2sc3c(c2c(=O)[nH]1)CCCC3` displayed a melting point of 140 to 142 °C. `O=C(NCc1ccco1)n1ccnc1`: the melting point was 145 to 147 °C. As for `Cc1occc1-c1nnc(S)n1N`, the figure is 159 to 161 °C.

In turn, `Fc1ccc(Nc2nnc(S)s2)cc1` displayed a melting point of 185 to 187 °C.

The molecule `O=C(O)c1cc(OCc2ccccc2)ccn1` came in with a melting point of 159 to 161 °C. On to `Cc1ccc(F)c(NC(=S)NN)c1`, for which the melting point was in the range of 133 to 135 °C. The value for `NC(=O)N1CCc2ccccc21` was 160 to 162 °C. The value for `Cc1nn(-c2ccc(F)cc2F)c(C)c1C=O` was 129 to 131 °C. As for `Nc1ccc(NC(=O)N2CCCCCC2)cc1`, the figure is 132 to 134 °C. For the molecule `CC1Oc2ccccc2OC1C(=O)O` (stereo unspecified), the melting point fell in the range of 106 to 108 °C. Take `Nc1ccc(Cl)cc1C(O)c1ccccc1` (stereo unspecified): the melting point was 105 to 107 °C.

`Cc1ccc(-n2c(C)cc(C=O)c2C)cc1` displayed a melting point of 102 to 104 °C.

`CCNc1ccncc1` returned a melting point of 103 to 105 °C. `COc1ccc(C=O)cc1OCC(C)C` yielded a melting point of 40 to 42 °C. As for `Nc1ccc(-c2cc3ccccc3o2)cc1`, the melting point is 281 to 283 °C.

`CN(Cc1ccccc1)S(N)(=O)=O` had a melting point of 92 to 94 °C. The molecule `O=C(O)Cc1ccc([N+](=O)[O-])cc1F` registered a melting point of 162 to 164 °C.

`CN(C)Cc1ccc(C(=O)O)cc1` yielded a melting point of 239 to 241 °C. In turn, `CNS(=O)(=O)c1ccc(N)cc1C` gave a melting point of 117 to 119 °C. The value for `CC(C)(C)OC(=O)N1CCOCC1C(=O)O` (stereo unspecified) was 162 to 164 °C. With `Cc1cc(NC(=O)C2CCCC2)sc1C(=O)O`, the melting point was 174 to 176 °C. With `O=[N+]([O-])C=Cc1ccc(F)cc1F`, the melting point fell in the range of 55 to 57 °C. As for `CC(=O)c1cc2cc(C)c(C)cc2o1`, the figure is 89 to 91 °C. The value for `O=C(CSc1ccccc1C(=O)O)c1ccc(-c2ccccc2)cc1` was 189 to 191 °C; that for `Clc1nc(-c2ccccc2)nc2scc(-c3ccccc3)c12` was 147 to 149 °C; that for `CC(Cl)C(=O)NC(C)c1ccc(Cl)cc1` (stereo unspecified) was 127 to 129 °C. The molecule `O=C(O)C1CCN(C(=O)N2CCOCC2)CC1` yielded a melting point of 131 to 133 °C.

Regarding `CSc1nc2ncnc(Cl)c2s1`, the melting point fell in the range of 149 to 151 °C. As for `O=C(O)CCCc1ccccc1Br`, the figure is 87 to 89 °C. The value for `NNc1ccc(S(=O)(=O)N2CCOCC2)cn1` was 179 to 181 °C.

The record behind these values is a melting point compilation (Tetko et al.).
